{
  "source": "paper PMC5603587",
  "about": "“Pharmacological inhibition of CaMKK2 with the selective antagonist STO-609 regresses NAFLD” (Scientific Reports, 2017)",
  "key": {"[1]": {"test": "plasma pharmacokinetics after a single i.p. dose", "type": "in vivo", "details": "male, C57BL/6 J, ip, mouse; for AUC(0-t): read-out: AUC 0-24, plasma", "procedure": "(§1) Plasma samples were prepared by mixing 5.0 μl of plasma with 45 μl of ice-cold MeOH followed by centrifugation at 15,000 × g for 15 min to remove protein. The resulting supernates were transferred into autosampler vials for analysis. Tissues (liver, intestine, kidney, pancreas, spleen, lung, heart, testis, white adipose tissue, gastrocnemius and brain) were weighed and homogenized in H2O/MeOH (1:1 v/v, 100 mg tissue in 600 μl). A volume of 200 μl of MeOH was added to 100 μl of tissue extracts. After vortexing and centrifugation (15 min at 15,000 × g), each supernate was transferred to an autosampler vial and 5.0 μl was injected to a system combining ultra-high performance liquid chromatography (UHPLC) and quadrupole time of flight mass spectrometry (QTOFMS) for analysis. The concentration of STO-609 was calculated based on standard curves in the corresponding matrices. The pharmacokinetic parameters were calculated using non-compartmental analysis with PKSolver[20]. The linear trapezoidal rule was used for area under the curve (AUC) calculation.\n(§2) Separation of STO-609 and its metabolites was achieved using a LC-QTOFMS system (Agilent Technologies, Santa Clara, CA) equipped with a 100 mm × 2.1 mm (Agilent XDB C18) column as previously described. Briefly, the column temperature was maintained at 45 °C. The flow rate was maintained at 0.3 ml/min with a gradient ranging from 2% to 98% aqueous acetonitrile containing 0.1% formic acid over a 15 min run. QTOFMS was operated in positive mode with electrospray ionization. Ultra high pure nitrogen was applied as the drying (12 L/min) and collision gas. The drying gas temperature was set at 325°C and nebulizer pressure was maintained at 35 psi. Capillary voltages were set at 3.5 kV. During mass spectrometry, real time mass correction and accurate mass were achieved by continuously measuring standard reference ions at m/z 121.0508, 922.0098 in the positive mode. The MS/MS of STO-609 and its metabolites was performed in targeted mode with a default isolation width of 4 m/z and collision energy ramp ranging from 20 to 50 V. Mass chromatograms and mass spectra were acquired by MassHunter® Workstation data Acquisition software (Agilent, Santa Clara, CA) in centroid and profile formats from m/z 100 to 1000. The acquisition rate was set as 1.5 spectra per second. Statistical analysis was conducted using Student’s independent t-test. Data are presented as mean ± s.e.m."}, "[2]": {"test": "tissue distribution after a single i.p. dose", "type": "in vivo", "details": "ip, 30 μM/kg i.p., mouse; for Cmax: 30 μM/kg", "procedure": "as §1, §2"}},
  "note": "Where two headings read alike, the source gives them in different places.",
  "data": [
    {"smiles": "O=C(O)c1ccc2c3c1cccc3c(=O)n1c3ccccc3nc21", "note": "[STO-609^S]", "values": [
      {"measurement": "AUC(0-inf)", "setting": "[1]; 30 μM/kg i.p.", "value": 317, "unit": "µM·h"},
      {"measurement": "CL/F", "setting": "[1]; 30 μM/kg i.p.", "value": 0.09, "unit": "L/h/kg"},
      {"measurement": "Cmax", "setting": "[1]; 30 μM/kg i.p.", "value": 32.6, "unit": "µM"},
      {"measurement": "AUC(0-t)", "setting": "[1]; 30 μM/kg i.p.", "value": 245, "unit": "µM·h"},
      {"measurement": "half-life", "setting": "[1]; 30 μM/kg i.p., read-out: t½, plasma (converted)", "value": 12.2, "unit": "h"},
      {"measurement": "AUC(0-inf)", "setting": "[1]; 300 μM/kg i.p.", "value": 3250, "unit": "µM·h"},
      {"measurement": "CL/F", "setting": "[1]; 300 μM/kg i.p.", "value": 0.09, "unit": "L/h/kg"},
      {"measurement": "Cmax", "setting": "[1]; 300 μM/kg i.p.", "value": 473, "unit": "µM"},
      {"measurement": "AUC(0-t)", "setting": "[1]; 300 μM/kg i.p.", "value": 2930, "unit": "µM·h"},
      {"measurement": "half-life", "setting": "[1]; 300 μM/kg i.p., read-out: t½, plasma (converted)", "value": 7.93, "unit": "h"},
      {"measurement": "half-life", "setting": "[1]; 30 and 300 μM/kg i.p., read-out: t½, plasma, over the doses", "value": "8 to 12", "unit": "h"},
      {"measurement": "half-life", "setting": "[2]; C57BL/6J, intestine, read-out: t½, intestine (converted)", "value": 3.85, "unit": "h"},
      {"measurement": "half-life", "setting": "[2]; C57BL/6J, kidney, read-out: t½, kidney (converted)", "value": 8.5, "unit": "h"},
      {"measurement": "Cmax", "setting": "[2]; C57BL/6J, intestine, read-out: Cmax, intestine", "value": 0.517, "unit": "µM"},
      {"measurement": "Cmax", "setting": "[2]; C57BL/6J, intestine, read-out: Cmax, intestine (text)", "value": "~0.5", "unit": "µM"},
      {"measurement": "Cmax", "setting": "[2]; C57BL/6J, pancreas, read-out: Cmax, pancreas", "value": 0.329, "unit": "µM"},
      {"measurement": "half-life", "setting": "[2]; C57BL/6J, pancreas, read-out: t½, pancreas (converted)", "value": 3.18, "unit": "h"},
      {"measurement": "half-life", "setting": "[2]; C57BL/6J, spleen, read-out: t½, spleen (converted)", "value": 4, "unit": "h"},
      {"measurement": "half-life", "setting": "[2]; male, C57BL/6 J, brain, read-out: t½, brain (converted)", "value": 5.21, "unit": "h"},
      {"measurement": "half-life", "setting": "[2]; male, C57BL/6 J, gastrocnemius, read-out: t½, gastrocnemius (converted)", "value": 5.83, "unit": "h"},
      {"measurement": "half-life", "setting": "[2]; male, C57BL/6 J, heart, read-out: t½, heart (converted)", "value": 3.01, "unit": "h"},
      {"measurement": "half-life", "setting": "[2]; male, C57BL/6 J, liver, read-out: t½, liver (converted)", "value": 3.74, "unit": "h"},
      {"measurement": "half-life", "setting": "[2]; male, C57BL/6 J, lung, read-out: t½, lung (converted)", "value": 3.24, "unit": "h"},
      {"measurement": "Cmax", "setting": "[2]; male, C57BL/6 J, gastrocnemius, read-out: Cmax, gastrocnemius", "value": 0.084, "unit": "µM"},
      {"measurement": "Cmax", "setting": "[2]; male, C57BL/6 J, heart, read-out: Cmax, heart", "value": 0.293, "unit": "µM"},
      {"measurement": "Cmax", "setting": "[2]; male, C57BL/6 J, spleen, read-out: Cmax, spleen", "value": 0.341, "unit": "µM"},
      {"measurement": "Cmax", "setting": "[2]; male, C57BL/6 J, testis, read-out: Cmax, testis", "value": 0.209, "unit": "µM"},
      {"measurement": "Cmax", "setting": "[2]; male, C57BL/6 J, white adipose tissue, read-out: Cmax, white adipose tissue", "value": 0.137, "unit": "µM"},
      {"measurement": "half-life", "setting": "[2]; male, C57BL/6 J, testis, read-out: t½, testis (converted)", "value": 3.95, "unit": "h"},
      {"measurement": "half-life", "setting": "[2]; male, C57BL/6 J, white adipose tissue, read-out: t½, white adipose tissue (converted)", "value": 3.93, "unit": "h"}
    ]}
  ]
}
